Laboratory results: patent publication US20090175799A1, “COLORED OR COLORABLE TOPICAL COMPOSITION FOAM” (priority 2006, published 2009)

Text: In one or more embodiments, the foamable composition includes a potent solvent, in addition to or in place of one of the hydrophobic solvents, polar solvents or emollients of the composition. A potent solvent is a solvent other than mineral oil that solubilizes a specific active agent substantially better than a hydrocarbon solvent such as mineral oil or petrolatum.

SMILES | solubility in glycofurol | solubility in mineral oil | solubility in dimethyl isosorbide | solubility in propylene glycol | solubility in polyethylene glycol 400 (PEG 400)
CCCCC(=O)O[C@]1(C(=O)CO)[C@@H](C)C[C@H]2[C@@H]3CCC4=CC(=O)C=C[C@]4(C)[C@@]3(F)[C@@H](O)C[C@@]21C [Betamethasone valerate] | more than 1% | < 0.01% |  |  | 
CCCC(=O)O[C@]1(C(=O)CO)CC[C@H]2[C@@H]3CCC4=CC(=O)CC[C@]4(C)[C@H]3[C@@H](O)C[C@@]21C [Hydrocortisone butyrate] | more than 1% | < 0.01% |  |  | 
CC(=O)N1CCN(c2ccc(OCC3COC(Cn4ccnc4)(c4ccc(Cl)cc4Cl)O3)cc2)CC1 (centres unmarked) [Ketoconazole] | more than 1% | < 0.01% | more than 1% | more than 1% | 
Cc1cnc(NC(=O)C2=C(O)c3ccccc3S(=O)(=O)N2C)s1 [Meloxicam] |  | < 0.001% |  |  | 
Cc1ncc([N+](=O)[O-])n1CCO [Metronidazole] |  | < 0.01% | more than 1% |  | 
C/C(=C\C(=O)OCCCCCCCCC(=O)O)C[C@@H]1OC[C@H](C[C@@H]2O[C@H]2[C@@H](C)[C@H](C)O)[C@@H](O)[C@H]1O [Mupirocin] | more than 1% | < 0.01% | more than 1% | more than 1% | more than 1%
CC(=O)[C@H]1CC[C@H]2[C@@H]3CCC4=CC(=O)CC[C@]4(C)[C@H]3CC[C@]12C [Progesterone] |  | < 0.001% |  |  | 
